Entries after “also recorded” stand apart in the source; their conditions may differ.
Tests used:
[1] = biological target: T1, OSBP1 protein levels in HCT-116 cells (Homo sapiens, UniProt P22059); test: OSBP1 protein levels by western blotting; assay type: cell-based; details: for reduction in OSBP1 protein levels: 24 h
T1 construct: endogenous in cells; host or cells: HCT-116
T1 sequence (P22059 1-807): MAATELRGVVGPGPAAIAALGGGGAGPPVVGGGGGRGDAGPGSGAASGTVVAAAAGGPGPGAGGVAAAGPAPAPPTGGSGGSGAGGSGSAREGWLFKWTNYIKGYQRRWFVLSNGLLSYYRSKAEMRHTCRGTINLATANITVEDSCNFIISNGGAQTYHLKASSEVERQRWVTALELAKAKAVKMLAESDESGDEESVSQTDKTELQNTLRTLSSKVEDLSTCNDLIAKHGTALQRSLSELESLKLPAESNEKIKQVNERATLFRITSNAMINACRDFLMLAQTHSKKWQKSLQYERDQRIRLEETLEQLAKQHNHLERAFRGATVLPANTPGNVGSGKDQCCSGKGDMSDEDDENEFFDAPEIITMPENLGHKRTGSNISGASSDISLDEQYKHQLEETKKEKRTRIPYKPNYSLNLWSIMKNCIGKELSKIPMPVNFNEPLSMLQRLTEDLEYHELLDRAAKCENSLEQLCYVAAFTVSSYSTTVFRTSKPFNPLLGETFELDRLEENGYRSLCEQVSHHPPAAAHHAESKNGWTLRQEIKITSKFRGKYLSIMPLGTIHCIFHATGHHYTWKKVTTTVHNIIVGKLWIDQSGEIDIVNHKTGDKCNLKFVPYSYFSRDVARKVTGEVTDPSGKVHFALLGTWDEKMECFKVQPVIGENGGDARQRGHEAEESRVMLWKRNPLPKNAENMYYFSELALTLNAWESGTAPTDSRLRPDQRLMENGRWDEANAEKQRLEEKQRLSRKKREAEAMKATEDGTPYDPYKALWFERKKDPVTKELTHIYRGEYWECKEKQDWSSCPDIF
Experimental: A possible explanation for this observation was that treatment with 1 and 2 caused a decrease in OSBP1 levels. Treatment of HCT-116 cells with vehicle (DMSO) or 25-OHC (10 μM) had no effect on OSBP1 levels, as assessed by western blotting (FIG. 6A). However, treatment with 1 or 2 induced a dramatic, time-dependent reduction of OSBP1 levels (FIG. 6A). For example, 50 nM of 1 or 10 nM of 2 caused an approximately 75% reduction in OSBP1 protein levels at 24 h in HCT-116 cells (FIG. 6A), with a similar effect recorded in A549 cells. […] OSBP1 levels were determined using both an antibody recognizing the far N-terminus of OSBP1 (FIG. 6) and also an antibody recognizing the C-terminus of OSBP1.
One possible explanation for the reduction in OSBP1 levels upon treatment with 1 and 2 was proteasome-dependent degradation. To determine whether degradation of OSBP1 was proteasome dependent, proteasome inhibitors MG-132 or lactacystin were co-administered with 1 and 2. […] Similar results were obtained in A549 cells.

[2] = tested on: NPC1^−/− (M12) CHO cells; test: Antiproliferative activity in NPC1-/- (M12) CHO cells; assay type: cell-based
[3] = tested on: HeLa cells overexpressing OSBP1(V582M); test: Overexpression-viability assay, OSBP1(V582M)-myc-his; assay type: cell-based; details: 48 h
Experimental: (§1) Overexpression-viability assays with wild-type and mutant OSBP/ORP4L constructs were carried out by transfecting HeLa cells with the appropriate plasmids using Lipofectamine™ LTX with PLUS™ reagent (Invitrogen) as instructed, and after 8 h of transfection, the cells were re-plated for the cell viability assay, performed as described above. Expression levels were evaluated by immunoblotting at the time of dosing.
(§2) For additional support that OSBP1 and ORP4L are targets of the ORPphilins, dominant drug-resistant alleles of these proteins were sought. 15 OSBP1 residues inside and outside the region of the protein previously reported to mediate sterol binding were mutated (FIG. 4C). The growth inhibition induced by the ORPphilins was determined in HeLa cells overexpressing either wild-type or mutant OSBP1-myc-his proteins. Expression of wt OSBP1-myc-his and mutant OSBP1-myc-his were nearly equivalent as measured by western blot.
(§3) The same mutant caused a 3.9-fold reduction in the antiproliferative activity of OSW-1 (2) (FIG. 4E2) and a 2.7-fold reduction in the activity of schweinfurthin A (4a) (FIG. 4E3). […] The antiproliferative activity of taxol was unaffected by expression of these two OSBP1 mutant proteins (FIGS. 4E4, 4E8).

[4] = tested on: HeLa cells overexpressing OSBP1(M446W)-myc-his; test: Overexpression-viability assay, OSBP1(M446W)-myc-his; assay type: cell-based; details: 48 h
Experimental: as §1, §2, §3

[5] = tested on: HCT-116 p21^−/− cells with OSBP1-targeting shRNA; test: OSBP1 shRNA knockdown/dose-shift experiment; assay type: cell-based, human; details: shOSBP1 vs shNT, 72 h
Excerpt: FIG. 3A is a series of four bar graphs depicting knockdown/dose-shift experiment in HCT-116 p21^−/− cells stably transfected with either OSBP1-targeting shRNA (shOSBP1) or non-targeting shRNA (shNT). Bars represent s.d. of three or four individual experiments. * P=0.0002 (n=3); ** P=0.0006 (n=4); *** P=0.0003 (n=3) compared to shNT cells (two-tailed students t-test).
To ascertain if the antiproliferative activity of the ORPphilins depended on the levels of OSBP1 and ORP4L in cells, short hairpin RNA (shRNA) knockdown of OSBP1 expression was performed and then its effect on the growth inhibitory activity of 1, 2, and 4a measured. […] Similar results were obtained in HeLa cells. Overexpression of OSBP1-myc-his or ORP4L-myc-his (FIG. 3C) for 48 h desensitized HeLa cells to the antiproliferative activity of 1, 2, or 4a by ˜2-5-fold (FIG. 3D). However, taxol-induced growth inhibition was not affected by overexpression of OSBP1-myc-his or ORP4L-myc-his (FIG. 3D).

Compound | effect on OSBP1 levels ([1]; 10 μM) | suppression of OSBP1 level reduction caused by 2 ([1]; 25-OHC (10 M or 20 M) with 2 (1 nM)) | antiproliferative activity in NPC1−/− (M12) CHO cells compared to wt CHO cells [2] | reduction in OSBP1 protein levels ([1]; 10 nM) | reduction in antiproliferative activity, OSBP1(V582M) vs wt OSBP1 [3] | reduction in antiproliferative activity at the GI50 level, OSBP1(M446W) vs wt OSBP1 [4] [fold] | sensitization by OSBP1 knockdown (GI50 shift) [5] [fold] | reduction in OSBP1 protein levels ([1]; 50 nM) | suppression of OSBP1 level reduction caused by 2 ([1]; 5 μM with 10 nM of 2) | effect on OSBP1 levels, compound alone ([1]; concentration not given)
C[C@H](CCCC(C)(C)O)[C@H]1CC[C@H]2[C@@H]3CC=C4C[C@@H](O)CC[C@]4(C)[C@H]3CC[C@]12C [Compound 25-OHC, 25-hydroxycholesterol] | no effect; also recorded: did not reduce | significantly suppressed | – | – | – | – | – | – | – | –
COc1ccc(C(=O)O[C@H]2[C@H](O[C@@H]3[C@@H](OC(C)=O)[C@H](O[C@H]4C[C@H]5[C@@H]6CC=C7C[C@@H](O)CC[C@]7(C)[C@H]6CC[C@]5(C)[C@@]4(O)[C@H](C)C(=O)CCC(C)C)OC[C@@H]3O)OC[C@@H](O)[C@@H]2O)cc1 [OSW-1] | – | – | no change | approximately 75% | did not affect | 3.9 | 6 | – | – | –
C[C@@H]1[C@]2(O[C@H]3C=C4[C@@H]5CC[C@H]6Cc7nc8c(nc7C[C@]6(C)[C@H]5C[C@@H](O)[C@]4(C)[C@]31O)C[C@@H]1CC[C@H]3C4=CC[C@@H]5[C@H](C)[C@@]6(OC[C@]45C(=O)C[C@@H]3[C@@]1(C)C8)OC(C)(C)C[C@H]6O)O[C@](C)(CO)C[C@H]2O [cephalostatin 1, Cephalostatin 1] | – | – | no change | – | 9.4 fold | 18 | 4 | approximately 75% | – | –
schweinfurthin A | – | – | no change | – | did not affect | 2.7 | 9 | – | completely suppressed | no effect
